Laboratory results reported in US20230218688A1 (Zhejiang Chinese Medical University, priority 2022, published 2023).

What follows are compounds tested on Helicobacter pylori ATCC43504 (assay: Growth inhibition experiment on Helicobacter pylori). Settings: Fermentation supernatant.
Type: cell-based
In the case of `Cc1ncc([N+](=O)[O-])n1CCO` [Positive control, metronidazole], the “Inhibition rates to Helicobacter pylori (%)” value is reported as 100%.

Same assay, conditions: Suspension
For `Cc1ncc([N+](=O)[O-])n1CCO` [Positive control, metronidazole], the “Inhibition rates to Helicobacter pylori (%)” value was 100%.

The compounds below were run on Lactobacillus helveticus ZJUIDS12 (assay: Antibiotic susceptibility of Lactobacillus helveticus ZJUIDS12 (susceptibility paper, inhibition zone)). Settings: according to CLSI 2017.
Type: cell-based
Parameters: key to Susceptive type: S: sensitive; I: intermediate; R: insensitive
In the case of Gentamicin [Gentamicin (GM)], the Susceptive type is reported as “I” and the “susceptibility of Lactobacillus helveticus ZJUIDS12 to the antibiotic (in words)” value (from here on “susceptibility”) is reported as “intermediate”.
For `Cc1cc(NS(=O)(=O)c2ccc(N)cc2)no1` [Sulfamethoxazole (SXT), Sulfamethoxazole], the Susceptive type was “R” and the “susceptibility” value was “insensitive”.
For `O=C(N[C@H](CO)[C@H](O)c1ccc([N+](=O)[O-])cc1)C(Cl)Cl` [Chloramphenicol (C), Chloramphenicol], the Susceptive type was “S” and the “susceptibility” value was “sensitive”.
`CCn1cc(C(=O)O)c(=O)c2cc(F)c(N3CCNCC3)cc21` [Norfloxacin (NOR), Norfloxacin] was tested, and the Susceptive type was “S” and the “susceptibility” value was “sensitive”.
In the case of `CC[C@H]1OC(=O)[C@H](C)[C@@H](O[C@H]2C[C@@](C)(OC)[C@@H](O)[C@H](C)O2)[C@H](C)[C@@H](O[C@@H]2O[C@H](C)C[C@H](N(C)C)[C@H]2O)[C@](C)(O)C[C@@H](C)C(=O)[C@H](C)[C@@H](O)[C@]1(C)O` [Erythromycin (E), Erythromycin], the Susceptive type is reported as “S” and the “susceptibility” value is reported as “sensitive”.
In the case of `NCC[C@H](O)C(=O)N[C@@H]1C[C@H](N)[C@@H](O[C@H]2O[C@H](CN)[C@@H](O)[C@H](O)[C@H]2O)[C@H](O)[C@H]1O[C@H]1O[C@H](CO)[C@@H](O)[C@H](N)[C@H]1O` [Amikacin (AK), Amikacin], the Susceptive type is reported as “S” and the “susceptibility” value is reported as “sensitive”.
For `CC1(C)S[C@@H]2[C@H](NC(=O)Cc3ccccc3)C(=O)N2[C@H]1C(=O)O` [Penicillin G(P), Penicillin G], the Susceptive type was “S” and the “susceptibility” value was “sensitive”.
`Cc1nnc(SCC2=C(C(=O)O)N3C(=O)[C@@H](NC(=O)Cn4cnnn4)[C@H]3SC2)s1` [Cefazolin(CZ), Cefazolin] was tested, and the Susceptive type was “S” and the “susceptibility” value was “sensitive”.
For `CC1(C)S[C@@H]2[C@H](NC(=O)[C@H](N)c3ccccc3)C(=O)N2[C@H]1C(=O)O` [Ampicillin (AM), Ampicillin], the Susceptive type was “S” and the “susceptibility” value was “sensitive”.
